Data reported in US6433012B1, “Method for inhibiting inflammatory disease” (Large Scale Biology Corp., priority 1998, dated 2002).

How the values were obtained:
MCF-7 cells = test: Flow cytometry, cell-cycle progression; assay type: cell-based, human; conditions: 1 μM, within 24 h
Text: Such arrested cells eventually undergo cell death which can occur by an apoptotic mechanism.

MCF-7 cell cultures = test: Cytotoxicity in vitro (reduction of cell number); assay type: cell-based; conditions: Homo sapiens, MCF7; treated for 48 h; read-out: IC50 (50% reduction of cell number relative to vehicle-treated control)
[1] = test system: corneal neovascularization induced by bFGF; test: Rat corneal neovascularization assay; assay type: in vivo, Fischer 344 rats; parameters: total vascular area: unit not given here; conditions: oral gavage 500 mg/kg twice a day for 6 days
Procedure: Hydron polymer (Interferon Sciences, New Brunswick, N.J.) was dissolved in ethanol to a concentration of 12% (W/V). A 1:1 mixture of 12% Hydron and bFGF/Sucralfate/PBS suspension was made as a casting solution and 3 μl of this solution was pipetted onto a sterile Teflon sheet and allowed to dry overnight at 4° C. Each dried pellet contained 50 ng of bFGF and 20 μg of Sucralfate. Female Fischer 344 rats (16 animals, 8-10 weeks old at an approximate weight of 150 g; Charles River, Raleigh, N.C.) were used for this study. Animals were kept in temperature-controlled rooms (24° C.) on a 12-h light-dark cycle with access to rat chow and tap water ad libitum. Following anesthesia with sodium pentobarbital given i.p. at 50 mg/kg body weight, a rat was placed under a dissecting microscope and a drop of Ophthaine was applied on the cornea of one eye. The eye was proptosed by stretching sutures on the upper and lower eyelids. A small superficial incision was made through the cornea center and a micropocket was created by separating the lamella of the stroma toward the limbus with a modified iris spatula. The distance between the bottom of the micropocket and the limbus was about 1 mm. A prepared sterile Hydron pellet was rehydrated with a drop of sterile saline and placed into the corneal micropocket. The cornea was covered with gentamycin ophthalmic ointment (Alleran, Inc., Irvine, Calif.) after surgery. Rats were randomly divided into treated and control groups. […] The drug was administrated by oral gavage at a dose of 500 mg/kg body weight, twice a day for 6 days beginning from the first postoperative day. The controls received vehicle only, and body weights of all animals were monitored and recorded daily. On the seventh postoperative day, animals were anesthetized with nembutal (50 mg/kg) and the thoracic aorta was rapidly cannulated in a retrograde fashion with PE 100 tubing. An incision was made in the right auricle for drainage of blood and saline during flushing and 40-60 mL of saline was injected via the tubing to wash out the blood from the vessels in the upper part of the body until the eyes, ears and nose became pale. Then 10 mL of Higgins waterproof Indian ink (Sanford, Bellwood, Ill.) was injected via the tubing to visualize corneal vessels. The eyes were enucleated, fixed in 10% neutralized formaldehyde buffer, and the corneas were dissected and mounted on slides. Slide-mounted corneal images were taken by using a Carl Zeiss MPS intravital microscope (Carl Zeiss, Hanover, Md.) with a camera connected to a PC equipped with Scion Image software and a frame grabber (Scion Corporation, Frederick, Md.).
For the quantitative analysis of corneal neovascularization, various parameters of the corneal images were measured by an investigator who was unaware of the treatment protocol. The shortest distance between the implanted pellet and the limbus was marked as the midline and was measured. The arc along the limbus for the entire vascularized area was drawn and the length of the arc was measured. The circumference of this area was calculated by using the following equation: Circumference (in clock hours)=Arc length×360/πD/30, where D is the corneal diameter. The marked arc was evenly divided into six sections, distances between vessel tips and the limbus at the five intersection points of the arc were measured, and the average vessel length was calculated. The perpendicular distance between the tip of the longest vessel and the limbus (longest vessel length) was also measured. To measure the percent vascular volume (i.e., the vascular volume density), three circles with a diameter of 100 pixels were located between the pellet and the limbus on the midline in the second and the fifth sections, respectively. The total area of each circle (Area-T) and the area for vessels in each circle (total black pixels) were measured (Area-V). […]

[2] = test system: OVCAR-3 human ovarian carcinoma xenografts; test: Tumor growth delay, OVCAR-3 xenografts; assay type: in vivo, nude mice; conditions: oral treatment, at 5 weeks
Procedure: Intraperitoneally administered cyclophosphamide (CTX; Cytoxan; 150 mg/kg), which is used in some regimens for adjuvant breast cancer therapy was used as a positive control.

HeLa cells = test: Cellular microtubule networks; assay type: cell-based, human; conditions: 10 μM for 1 h

COC(=O)c1cc(I)c(Oc2ccc(OC)cc2)c(I)c1 [BTO-956, methyl-3,5-diiodo-4-(4′-methoxyphenoxy)benzoate]
cells arrested at G2/M (MCF-7 cells): at least 60%
IC50 (MCF-7 cell cultures): 600 nM
body weight loss or behavioral changes [1]: No significant body weight loss or behavioral changes
average vessel length ([1]; mean ± SEM): 0.42±0.07 mm
circumference of corneal neovascularization ([1]; mean ± SEM): 1.74±0.11 clock hours
maximum vessel length ([1]; mean ± SEM): 0.76±0.09 mm
total vascular area ([1]; mean ± SEM): 1.52±0.27
vascular volume density ([1]; mean ± SEM): 0.037±0.01
reduction of average vessel length relative to controls ([1]; p<0.001): 50%
decrease of total vascular area compared with controls ([1]; p<0.01): 65%
decrease of vascular volume density compared with controls ([1]; p<0.01): 84.5%
reduction of circumference of neovascularization compared with controls ([1]; p<0.01): 45%
reduction of maximum vessel length relative to controls ([1]; p<0.01): 38%
relative mean tumor volume, fold less than vehicle-treated controls [2]: approximately 5 fold
cellular microtubule networks (HeLa cells): aberrant microtubule networks
